The supplement of paper PMC11208160

Test: recombinant UMI read abundance after kanamycin selection (control-corrected) (log10(CPM+1)); higher = more efficient recombination; extreme values may be limits of the assay; sequences stand for … in AGTGCAGAGAAAATCGGCCAGTTTTCTCTGCCTGCAGTCCGCATGCCGTGGGACCCCTTGGGTTCTAACCTGTTGCCTAGATTTATGCAGCGGACTGCCTTTCTCCCAAAGTGATAAACCGG…AGGTTGGTTTCACT; site = the 11-nt donor
Outline: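 Two replicates each of selected and unselected plating were used in this pooled Escherichia coli screen of donor and donor-binding-loop pairs for the IS621 bridge recombinase. Selection was with IPTG (0.07 mM) and kanamycin. Counts of recombinant UMIs, amplified across the donor–target junction, were converted to CPM, averaged, scaled by control-derived factors and reported as log10(CPM+1).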
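Note: IS621 bridge recombinase in Escherichia coli cells against a fixed T5 target plasmid.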

Sequence	recombinant UMI read abundance (log10)
AGCTATGCATGGACCGGTTTTCCCGGTAATCCGTATTTGAT (site AGCTATGCTAT)	1.79
AGCTCGGCATGGACCGGTTTTCCCGGTAATCCGTATTTGGG (site AGCTCAGCTCC)	0.0161
AGCTCGGCATGGACCGGTTTTCCCGGTAATCCGTATTTGGG (site AGCTCCGCTCC)	0.0225
AGCTCGGCATGGACCGGTTTTCCCGGTAATCCGTATTTGGG (site AGCTCGGCTCC)	0
AGCTCGGCATGGACCGGTTTTCCCGGTAATCCGTATTTGGG (site AGCTCTGCTCC)	0
AGCTCTACATGGACCGGTTTTCCCGGTAATCCGTATTTGAA (site AGCTCTACTTT)	0
AGCTCTGCATGGACCGGTTTTCCCGGTAATCCGTATTTGGT (site AGCTCTGCTAC)	1.36
AGCTGAGCATGGACCGGTTTTCCCGGTAATCCGTATTTGCC (site AGCTGAGCTGG)	0.908
AGCTTGCCATGGACCGGTTTTCCCGGTAATCCGTATTTGGC (site AGCTTGCCTGC)	0
AGCTTGTCATGGACCGGTTTTCCCGGTAATCCGTATTTGAG (site AGCTTGTCTCT)	1.62
AGGAAATCATGGACCGGTTTTCCCGGTAATCCGTATTTGCA (site AGGAAATCTTG)	1.9
AGGAAATCATGGACCGGTTTTCCCGGTAATCCGTATTTGCA (site AGGAAGACTTG)	0
AGGAAATCATGGACCGGTTTTCCCGGTAATCCGTATTTGGT (site AGGAAATCTAC)	1.73
AGGAAGACATGGACCGGTTTTCCCGGTAATCCGTATTTGCG (site AGGAAGACTAG)	0.0723
AGGAAGACATGGACCGGTTTTCCCGGTAATCCGTATTTGCG (site AGGAAGACTCG)	2.32
AGGAAGACATGGACCGGTTTTCCCGGTAATCCGTATTTGCG (site AGGAAGACTGG)	0
AGGAAGACATGGACCGGTTTTCCCGGTAATCCGTATTTGCG (site AGGAAGACTTG)	1.73
AGGAATACATGGACCGGTTTTCCCGGTAATCCGTATTTGCT (site AGGAAGACTTG)	0
AGGAATACATGGACCGGTTTTCCCGGTAATCCGTATTTGCT (site AGGAATACTAG)	2.18
AGGAATCCATGGACCGGTTTTCCCGGTAATCCGTATTTGTA (site AGGAATCCTTA)	0.615
AGGAATCCATGGACCGGTTTTCCCGGTAATCCGTATTTGTA (site CGGAATCCTAA)	0.00925
AGGACACCATGGACCGGTTTTCCCGGTAATCCGTATTTGTA (site AGGACACCTTA)	0.189
AGGACATCATGGACCGGTTTTCCCGGTAATCCGTATTTGCT (site AGGACATCTAG)	1.48
AGGACATCATGGACCGGTTTTCCCGGTAATCCGTATTTGCT (site CGGACATCTAG)	1.01
AGGACATCATGGACCGGTTTTCCCGGTAATCCGTATTTGCT (site GGGACATCTAG)	0.0498

Sequence	recombinant UMI read abundance (log10)
AGGACATCATGGACCGGTTTTCCCGGTAATCCGTATTTGCT (site TGGACATCTAG)	1.15
AGGACCCCATGGACCGGTTTTCCCGGTAATCCGTATTTGGT (site AGGACCCCTAC)	0.297
AGGACGGCATGGACCGGTTTTCCCGGTAATCCGTATTTGAA (site AGGACGGCTTT)	1.73
AGGACTACATGGACCGGTTTTCCCGGTAATCCGTATTTGAC (site AAGACTACTGT)	0.848
AGGACTACATGGACCGGTTTTCCCGGTAATCCGTATTTGAC (site ACGACTACTGT)	0.945
AGGACTACATGGACCGGTTTTCCCGGTAATCCGTATTTGAC (site AGAACTACTGT)	2.18
AGGACTACATGGACCGGTTTTCCCGGTAATCCGTATTTGAC (site AGCACTACTGT)	0.0103
AGGACTACATGGACCGGTTTTCCCGGTAATCCGTATTTGAC (site AGGAATACTGT)	1.29
AGGACTACATGGACCGGTTTTCCCGGTAATCCGTATTTGAC (site AGGACAACTGT)	0.797
AGGACTACATGGACCGGTTTTCCCGGTAATCCGTATTTGAC (site AGGACCACTGT)	0.969
AGGACTACATGGACCGGTTTTCCCGGTAATCCGTATTTGAC (site AGGACGACTGT)	0.00571
AGGACTACATGGACCGGTTTTCCCGGTAATCCGTATTTGAC (site AGGACTACTAT)	0.00291
AGGACTACATGGACCGGTTTTCCCGGTAATCCGTATTTGAC (site AGGACTACTCT)	0.0111
AGGACTACATGGACCGGTTTTCCCGGTAATCCGTATTTGAC (site AGGACTACTGA)	0
AGGACTACATGGACCGGTTTTCCCGGTAATCCGTATTTGAC (site AGGACTACTGC)	0.68
AGGACTACATGGACCGGTTTTCCCGGTAATCCGTATTTGAC (site AGGACTACTGG)	0
AGGACTACATGGACCGGTTTTCCCGGTAATCCGTATTTGAC (site AGGACTACTGT)	2.29
AGGACTACATGGACCGGTTTTCCCGGTAATCCGTATTTGAC (site AGGACTACTTT)	0.0694
AGGACTACATGGACCGGTTTTCCCGGTAATCCGTATTTGAC (site AGGACTCCTGT)	0
AGGACTACATGGACCGGTTTTCCCGGTAATCCGTATTTGAC (site AGGACTGCTGT)	0.359
AGGACTACATGGACCGGTTTTCCCGGTAATCCGTATTTGAC (site AGGACTTCTGT)	0.0138
AGGACTACATGGACCGGTTTTCCCGGTAATCCGTATTTGAC (site AGGAGTACTGT)	0
AGGACTACATGGACCGGTTTTCCCGGTAATCCGTATTTGAC (site AGGATTACTGT)	0.471
AGGACTACATGGACCGGTTTTCCCGGTAATCCGTATTTGAC (site AGGCCTACTGT)	0.988
AGGACTACATGGACCGGTTTTCCCGGTAATCCGTATTTGAC (site AGGGCTACTGT)	0

Sequence	recombinant UMI read abundance (log10)
AGGACTACATGGACCGGTTTTCCCGGTAATCCGTATTTGAC (site AGGTCTACTGT)	1.2
AGGACTACATGGACCGGTTTTCCCGGTAATCCGTATTTGAC (site AGTACTACTGT)	0.941
AGGACTACATGGACCGGTTTTCCCGGTAATCCGTATTTGAC (site ATGACTACTGT)	1.13
AGGACTACATGGACCGGTTTTCCCGGTAATCCGTATTTGAC (site CGGACTACTGT)	0.831
AGGACTACATGGACCGGTTTTCCCGGTAATCCGTATTTGAC (site GGGACTACTGT)	0
AGGACTACATGGACCGGTTTTCCCGGTAATCCGTATTTGAC (site TGGACTACTGT)	0.901
AGGACTACATGGACCGGTTTTCCCGGTAATCCGTATTTGCA (site AGGAAGACTTG)	0
AGGACTACATGGACCGGTTTTCCCGGTAATCCGTATTTGCA (site AGGACTACTTG)	2.22
AGGACTCCATGGACCGGTTTTCCCGGTAATCCGTATTTGAC (site AGGACTACTGT)	0
AGGACTCCATGGACCGGTTTTCCCGGTAATCCGTATTTGAC (site AGGACTCCTGT)	0.719
AGGACTCCATGGACCGGTTTTCCCGGTAATCCGTATTTGAC (site AGGACTGCTGT)	0
AGGACTCCATGGACCGGTTTTCCCGGTAATCCGTATTTGAC (site AGGACTTCTGT)	0
AGGACTGCATGGACCGGTTTTCCCGGTAATCCGTATTTGAC (site AGGACTACTGT)	2.15
AGGACTGCATGGACCGGTTTTCCCGGTAATCCGTATTTGAC (site AGGACTCCTGT)	0.533
AGGACTGCATGGACCGGTTTTCCCGGTAATCCGTATTTGAC (site AGGACTGCTGT)	2.92
AGGACTGCATGGACCGGTTTTCCCGGTAATCCGTATTTGAC (site AGGACTTCTGT)	0
AGGAGATCATGGACCGGTTTTCCCGGTAATCCGTATTTGGG (site AGGAGATCTCC)	0.505
AGGAGGCCATGGACCGGTTTTCCCGGTAATCCGTATTTGCA (site AGGAAGACTTG)	0
AGGAGGCCATGGACCGGTTTTCCCGGTAATCCGTATTTGCA (site AGGAGGCCTTG)	0.211
AGGAGGGCATGGACCGGTTTTCCCGGTAATCCGTATTTGCC (site AGGAGGGCTGG)	2.16
AGGAGTGCATGGACCGGTTTTCCCGGTAATCCGTATTTGAG (site AGGAGTGCTCT)	2.37
AGGATAACATGGACCGGTTTTCCCGGTAATCCGTATTTGCA (site AGGAAGACTTG)	1.01
AGGATAACATGGACCGGTTTTCCCGGTAATCCGTATTTGCA (site AGGATAACTTG)	2.55
AGGATCTCATGGACCGGTTTTCCCGGTAATCCGTATTTGAA (site AGGATCTCTTT)	2.92
AGGATGTCATGGACCGGTTTTCCCGGTAATCCGTATTTGCA (site AGGAAGACTTG)	0.00922
